Measured values as given in ChEMBL document CHEMBL4043236, “Design and synthesis of novel PRMT1 inhibitors and investigation of their binding preferences using molecular modelling” (Bioorg Med Chem Lett, 2017).

Columns and labels:
[1] = target: T1, Protein arginine N-methyltransferase 1 (Homo sapiens, UniProt Q99873); assay: (§1) Inhibition of recombinant human N-terminal GST-tagged PRMT1 (2 to end residues) expressed in baculovirus infected Sf9 insect cells at 9 uM using biotinylated histone H4 peptide as substrate preincubated for 15 mins followed by substrate/[3H]-SAM addition measured after 60 mins by microbeta liquid scintillation counting analysis
Target sequence in this assay (Q99873 whole entry, looked up): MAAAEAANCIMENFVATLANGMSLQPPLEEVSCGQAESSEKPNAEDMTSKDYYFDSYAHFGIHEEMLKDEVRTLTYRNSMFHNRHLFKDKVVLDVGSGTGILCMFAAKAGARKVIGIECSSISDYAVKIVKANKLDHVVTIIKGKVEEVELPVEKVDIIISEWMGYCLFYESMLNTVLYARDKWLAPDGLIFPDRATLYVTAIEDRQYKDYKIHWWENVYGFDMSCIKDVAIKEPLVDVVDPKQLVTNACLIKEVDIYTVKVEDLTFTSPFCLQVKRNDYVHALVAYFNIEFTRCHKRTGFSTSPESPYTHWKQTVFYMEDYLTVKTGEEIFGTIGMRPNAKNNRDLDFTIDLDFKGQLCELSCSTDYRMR

[2] = target: T1, Protein arginine N-methyltransferase 1; assay: as §1, with “cells” for “cells at 9 uM”
Target sequence in this assay (Q99873 whole entry): as the sequence (Q99873 whole entry, looked up) above

Daoy = assay: Cytotoxicity against human DaOY cells assessed as reduction in cell viability after 72 hrs by CellTiter-blue assay; assay type: functional, cell-based
MCF7 = assay: Cytotoxicity against human MCF7 cells assessed as reduction in cell viability after 72 hrs by CellTiter-blue assay; assay type: functional, cell-based; details: MCF7, 72 h
[3] = target: T1, Protein arginine N-methyltransferase 1; assay: Potency index, ratio of AMI-1 IC50 to compound IC50 for recombinant human N-terminal GST-tagged PRMT1 (2 to end residues) expressed in baculovirus infected Sf9 insect cells
Target sequence in this assay (Q99873 whole entry, looked up): as above

HepG2 = assay: Cytotoxicity against human HepG2 cells assessed as reduction in cell viability after 72 hrs by CellTiter-blue assay; assay type: functional, cell-based; details: HepG2, 72 h

SMILES | inhibition [1] [%] | other results
CNCCN(C)Cc1ccc(-c2ccc(C(F)(F)F)cc2)o1 | 43 | IC50 [2]: 8.2 µM; IC50 (Daoy): 72.8 µM; IC50 (MCF7): 49.8 µM; Ratio IC50 [3]: 3; IC50 (HepG2): 36.4 µM
COC(=O)c1cccc(-c2ccc(CN(C)CCN)o2)c1 | 38 | –
CNCCN(C)c1nnnn1Cc1cccc(OC(F)(F)F)c1 | 12 | –
CN(CCN)Cc1ccc(-c2cccc(C#N)c2)o1 | 38 | –
CNCCN(C)Cc1ccc(-c2ccc(C(=O)OC)cc2)o1 | 32 | –
CNCCN(C)c1nnnn1Cc1ccc(OC)cc1 | 0 | –
CNCCN(C)Cc1ccc(-c2ccc(OC)cc2)o1 | 38 | –
O=C(Nc1ccc2c(O)cc(S(=O)(=O)O)cc2c1)Nc1ccc2c(O)cc(S(=O)(=O)O)cc2c1 | – | IC50 (Daoy): > 100 µM; IC50 (MCF7): > 100 µM; IC50 (HepG2): 51.2 µM
CN(CCN)Cc1ccc(-c2cccc(C(F)(F)F)c2)o1 | 31 | –
CN(CCN)Cc1ccc(-c2cccc(OC(F)(F)F)c2)o1 | 46 | IC50 [2]: 14 µM; IC50 (Daoy): > 100 µM; IC50 (MCF7): > 100 µM; IC50 (HepG2): > 100 µM
CNCCN(C)Cc1ccc(-c2cccc(C(=O)OC)c2)o1 | 51 | IC50 [2]: 14 µM; IC50 (Daoy): 71.2 µM; IC50 (MCF7): > 100 µM; IC50 (HepG2): 74.1 µM
CNCCN(C)Cc1ccc(-c2cccc(C#N)c2)o1 | 33 | –
CNCCN(C)Cc1ccc(-c2cccc(C(F)(F)F)c2)o1 | 43 | IC50 [2]: 14 µM; IC50 (Daoy): 69.8 µM; IC50 (MCF7): 61.1 µM; IC50 (HepG2): 34.5 µM
CNCCN(C)c1nnnn1Cc1ccc(C#N)cc1 | 6 | –

Now from value to compound, other results behind:

inhibition [1] [%] | SMILES | other results
1 | FC(F)(F)c1cccc(Cn2nnnc2N2CCNCC2)c1 | –
37 | CN(CCN)Cc1ccc(-c2ccc(C(F)(F)F)cc2)o1 | –
9 | CNCCN(C)c1nnnn1Cc1ccccc1OC(F)(F)F | –
8 | CNCCN(C)c1nnnn1Cc1cccc(C(F)(F)F)c1 | –
41 | CNCCN(C)Cc1ccc(-c2cccc(OC(F)(F)F)c2)o1 | IC50 [2]: 14 µM; IC50 (Daoy): 23.6 µM; IC50 (MCF7): 64.4 µM; IC50 (HepG2): 23 µM
30 | COC(=O)c1ccc(-c2ccc(CN(C)CCN)o2)cc1 | –
35 | CNCCN(C)Cc1ccc(-c2ccc(C#N)cc2)o1 | –
90 | Nc1ncnc2c1ncn2[C@@H]1O[C@H](CSCC[C@H](N)C(=O)O)[C@@H](O)[C@H]1O | –
13 | CNCCN(C)c1nnnn1Cc1ccccc1C(F)(F)F | –
37 | CNCCN(C)Cc1ccc(-c2cccc(OC)c2)o1 | –
25 | CN(CCN)Cc1ccc(-c2ccc(OC(F)(F)F)cc2)o1 | –
24 | COc1cccc(-c2ccc(CN(C)CCN)o2)c1 | –
40 | CNCCN(C)Cc1ccc(-c2ccc(OC(F)(F)F)cc2)o1 | IC50 [2]: 17 µM; IC50 (Daoy): 24.3 µM; IC50 (MCF7): 30.6 µM; IC50 (HepG2): 24.2 µM
2 | CNCCN(C)c1nnnn1Cc1ccc(C(F)(F)F)cc1 | –
25 | COc1ccc(-c2ccc(CN(C)CCN)o2)cc1 | –
5 | CNCCN(C)c1nnnn1Cc1ccc(OC(F)(F)F)cc1 | –
